Experimental data reported in patent publication US4863741A, “Tablet composition for drug combinations” (Abbott Laboratories, priority 1989, dated 1989).
Where two headings read alike, the source gives them in different places.

Type: physicochemical
Conditions: for t90 (time required for 10% destruction of erythromycin activity): 25° C.; for t50 (time required for 50% destruction of erythromycin activity): water
Procedure: To evaluate the feasibility of a single, non-enteric coated preparation containing erythromycin, the times required for 50% destruction of erythromycin activity t50) and 10% destruction of erythromycin activity t90) in aqueous solution at 25° C. were calculated as a function of pH from data reported in the literature.

CC[C@H]1OC(=O)[C@H](C)[C@@H](O[C@H]2C[C@@](C)(OC)[C@@H](O)[C@H](C)O2)[C@H](C)[C@@H](O[C@@H]2O[C@H](C)C[C@H](N(C)C)[C@H]2O)[C@](C)(O)C[C@@H](C)C(=O)[C@H](C)[C@@H](O)[C@]1(C)O [erythromycin]
t90 (time required for 10% destruction of erythromycin activity) (pH 3.0, aqueous solution): 1.52 min | t90 (time required for 10% destruction of erythromycin activity) (pH 3.5, aqueous solution): 528 min | t90 (time required for 10% destruction of erythromycin activity) (pH 4.0, aqueous solution): 15.2 min | t90 (time required for 10% destruction of erythromycin activity) (pH 4.5, aqueous solution): 52.8 min | t90 (time required for 10% destruction of erythromycin activity) (pH 5.0, aqueous solution): 152 min | t90 (time required for 10% destruction of erythromycin activity) (pH 5.5, aqueous solution): 528 min | t90 (time required for 10% destruction of erythromycin activity) (pH 6.0, aqueous solution): 1530 min | t50 (time required for 50% destruction of erythromycin activity) (pH 3): 0.167 h | t50 (time required for 50% destruction of erythromycin activity) (pH 3.5): 0.578 h | t50 (time required for 50% destruction of erythromycin activity) (pH 4): 1.67 h | t50 (time required for 50% destruction of erythromycin activity) (pH 4.5): 5.79 h | t50 (time required for 50% destruction of erythromycin activity) (pH 5): 16.7 h | t50 (time required for 50% destruction of erythromycin activity) (pH 5.5): 57.8 h | t50 (time required for 50% destruction of erythromycin activity) (pH 6): 167 h
